Measurements taken from PMC8929351 (Pharmacology Research & Perspectives, 2022).
“Also recorded” adds a separate entry of the source.

Columns and labels:
[1] = target: human µ receptor wild‐type (WT) (Homo sapiens, UniProt P35372); assay: cell-based; format: cell-based
rat µ receptor [2] = conditions: cited from earlier work
human µ receptor N40D = human µ receptor N40D (Homo sapiens, UniProt P35372, N40D); assay: cell-based; format: cell-based
human µ receptor A6V = human µ receptor A6V (Homo sapiens, UniProt P35372, A6V); assay: cell-based; format: cell-based
Somatostatin receptors = format: cell-based, Mouse; conditions: 30 µM tapentadol; SRIF 100 nM; AtT20 WT cells
GIRK1/2 channel = target: T1, GIRK1/2 channel (Mus musculus, UniProt P48542+P63250); format: cell-based; conditions: 30 µM tapentadol, AtT20 WT cells
T1 sequence (P63250 1-501): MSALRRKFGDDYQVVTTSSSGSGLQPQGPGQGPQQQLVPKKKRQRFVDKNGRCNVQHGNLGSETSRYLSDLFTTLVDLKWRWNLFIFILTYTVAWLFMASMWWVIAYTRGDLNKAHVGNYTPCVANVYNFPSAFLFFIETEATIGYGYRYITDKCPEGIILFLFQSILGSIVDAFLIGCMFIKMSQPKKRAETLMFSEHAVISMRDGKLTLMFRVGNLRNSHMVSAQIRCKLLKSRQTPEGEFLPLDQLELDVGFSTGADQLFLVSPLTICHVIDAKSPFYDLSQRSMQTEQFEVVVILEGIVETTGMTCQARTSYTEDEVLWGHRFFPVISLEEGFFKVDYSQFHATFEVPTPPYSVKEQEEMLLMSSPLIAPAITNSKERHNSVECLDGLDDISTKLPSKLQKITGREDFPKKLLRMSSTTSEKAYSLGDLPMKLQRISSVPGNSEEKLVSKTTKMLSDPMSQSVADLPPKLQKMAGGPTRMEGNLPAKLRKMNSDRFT
T1 sequence (P48542 1-425): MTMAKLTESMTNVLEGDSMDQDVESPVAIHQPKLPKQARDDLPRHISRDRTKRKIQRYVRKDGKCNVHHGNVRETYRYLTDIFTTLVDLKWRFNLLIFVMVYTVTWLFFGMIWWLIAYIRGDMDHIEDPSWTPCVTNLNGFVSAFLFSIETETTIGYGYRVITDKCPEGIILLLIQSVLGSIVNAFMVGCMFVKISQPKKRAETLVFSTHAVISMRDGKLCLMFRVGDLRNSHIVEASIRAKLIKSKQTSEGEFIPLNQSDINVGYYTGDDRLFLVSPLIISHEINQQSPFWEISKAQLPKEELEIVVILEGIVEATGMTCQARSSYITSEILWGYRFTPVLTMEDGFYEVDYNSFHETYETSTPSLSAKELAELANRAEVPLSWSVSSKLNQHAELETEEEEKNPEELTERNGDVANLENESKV

rat µ receptor [3] = conditions: cited from earlier work; remark: listed apart in the source
[4] = tested on: noradrenaline transporter; conditions: read-out: EC50 to inhibit noradrenaline transporter; LC neurons; cited from earlier work
GIRK channels = conditions: 100 µM; cells clamped at −60 mV; cited from earlier work
[5] = tapentadol‐related fatality; cited from earlier work
human µ receptor = conditions: GTPγS binding; cited from earlier work
OPRM1 knock‐out mice = conditions: dose highly effective in wild‐type mouse; cited from earlier work

Chain of human µ receptor wild‐type (WT) (P35372 whole entry): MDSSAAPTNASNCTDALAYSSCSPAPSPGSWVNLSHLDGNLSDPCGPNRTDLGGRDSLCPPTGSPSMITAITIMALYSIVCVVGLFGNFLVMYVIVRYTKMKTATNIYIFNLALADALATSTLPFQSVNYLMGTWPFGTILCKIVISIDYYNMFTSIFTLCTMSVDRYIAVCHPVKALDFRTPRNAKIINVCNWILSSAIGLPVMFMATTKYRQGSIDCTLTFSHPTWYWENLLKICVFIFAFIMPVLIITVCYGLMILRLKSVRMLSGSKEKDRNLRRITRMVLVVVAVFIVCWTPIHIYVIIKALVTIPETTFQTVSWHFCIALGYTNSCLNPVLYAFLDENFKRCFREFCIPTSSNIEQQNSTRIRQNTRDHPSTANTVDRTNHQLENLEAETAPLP
Chain of human µ receptor A6V (P35372 whole entry A6V): as the sequence (P35372 whole entry) above, with A6V counted along it
Chain of human µ receptor N40D (P35372 whole entry N40D): as the sequence (P35372 whole entry) above, with N40D counted along it

| Structure (SMILES) | effect to activate the GIRK channel in variants compared to WT [1] | Operational tau (rat µ receptor [2]) | Operational tau [1] | response at the highest concentration compared with plateau ([1]; 30 µM, undepleted conditions) | Relative tau (intrinsic efficacy relative to DAMGO) ([1]; WT, AtT20 cells, operational model, β‐CNA 100 nM 20 min, mean ± SEM) | Kd ([1]; pKA, WT, operational (functional) affinity) [µM] | Kd (human µ receptor N40D) [µM] | Relative tau (intrinsic efficacy relative to DAMGO) (human µ receptor N40D; N40D, AtT20 cells, operational model, β‐CNA 100 nM 20 min, mean ± SEM) | Kd (human µ receptor A6V) [µM] | Relative tau (intrinsic efficacy relative to DAMGO) (human µ receptor A6V; A6V, AtT20 cells, operational model, β‐CNA 100 nM 20 min, mean ± SEM) | effect on response of SRIF (Somatostatin receptors) | effect on response of ML297 (GIRK1/2 channel) | intrinsic activity (rat µ receptor [3]; GIRK currents, rat LC neurons) | EC50 (rat µ receptor [3]; read-out: EC50 to activate µ receptor, LC neurons) [µM] | EC50 [4] [µM] | blockage of GIRK channels (GIRK channels) | serum concentration [5] [µM] | in vitro efficacy (human µ receptor) | analgesic effect (OPRM1 knock‐out mice) |
| --- | --- | --- | --- | --- | --- | --- | --- | --- | --- | --- | --- | --- | --- | --- | --- | --- | --- | --- | --- |
| C[C@@H](NC(=O)[C@@H](N)Cc1ccc(O)cc1)C(=O)NCC(=O)N(C)[C@@H](Cc1ccccc1)C(=O)NCCO [DAMGO, Tyr‐D‐Ala‐Gly‐N‐MePhe‐Gly‐ol acetate] | not different | 28.5 ± 1.1 | – | – | – | – | – | – | – | – | – | – | – | – | – | – | – | – | – |
| COc1ccc2c3c1O[C@H]1C(=O)CC[C@@]4(O)[C@@H](C2)N(C)CC[C@]314 [Oxycodone] | – | 5.1 ± 0.2 | 13.9 ± 2 | – | – | – | – | – | – | – | – | – | – | – | – | – | – | – | – |
| CC[C@@H](c1cccc(O)c1)[C@@H](C)CN(C)C [Tapentadol] | – | – | – | smaller response | 0.05 ± 0.01 | 3.98 | 3.98 | 0.05 ± 0.02 | 4.47 | 0.04 ± 0.01 | significant reduction; also recorded: decreased the maximal response | significant reduction; also recorded: decreased the maximal response | lower intrinsic activity than morphine and oxycodone | 1.8 | 2.3 | no blockage of GIRK channels | 3.5 to 25 | same efficacy as morphine | reduced yet significant analgesia |
